According to patent publication US20070207981A1, “MICRO-ENCAPSULATION OF VOLATILE COMPOUNDS INTO CYCLODEXTRINS: A NEW TECHNOLOGY TO REDUCE POST HARVEST LOSSES” (priority 2006, published 2007):

Columns and labels:
[1] = test system: Colletotrichum acutatum; assay: Growth of C. acutatum exposed to volatile vapour in closed jars at 23° C.; settings: 7 days at 23° C.; for concentration that completely inhibited / avoided C. acutatum growth: headspace concentration
Description: (§2) Fourteen-day-old surface-plated cultures of Colletotricumn acutatum, Alternaria alternata and Botrytis cinerea in plastic Petri dishes (9 cm diameter), were filled aseptically with PDA medium (Potato Dextrose Agar) (Sigma-Aldrich Corp. (Saint Louis, Mo.)), and mixed with a few drops of sterile distilled water. Ten mL of each were collected inside plastic tubes which were shaken hard to dislodge spores from mycelia. The spores and cell suspensions were then filtered with sterile cheesecloth to remove debris such as mycelia and condensed-agar fragments and the aliquot was concentrated to 10^6 c.f.u./mL (spore*mL^−1), which were counted by the Neubauer improved method (Bright-Line Hemacytometer, Hausser Scientific, Horsham, Pa.).
(§3) Smaller Petri dishes (5.5 cm diameter) were also filled aseptically with PDA. Upon solidification of the agar medium, a drop of spores of each suspension was inserted as a drop in the centre of the well with a 100 μL Oxford Autoclavable Benchmate Pipette (Nichiryo, Japan). Finally, the Petri dishes were placed inside 1 L-glass jars which were closed with twist-off tops and stored at 23° C. These were used as the controls.
(§4) Other jars were modified for inserting and withdrawing of the volatiles obtained from the bioassays. For that, jars tops were modified by introducing a septum through which the volatile was inserted on a small piece of glass which was suspended 4 cm above the bottom. The same device was used to withdraw samples during storage. […]
(§5) Radial growth of the cultures in controls and treated samples were evaluated daily by measuring the surface area of the plate occupied by the colony during incubation or by measuring the length of the colony. […] Each assay was tested in triplicate and the area means calculated were analyzed statistically by analysis of variance. The delay in fungal growth was expressed as direct radial growth of cultures in cm^2 or cm as a percentage of colony growth by comparing samples exposed to the anti-fungal treatments with the controls. […]

[2] = test system: Aspergillus Niger; assay: Growth of Aspergillus niger in vitro in the presence of pure volatiles; type: cell-based; settings: 4 μL of volatile, after 7 days at room temperature
Description: (§1) In accordance with still another embodiment of the present invention, growth of Penicillium sp. and Aspergillus Niger was evaluated in vitro in the presence of hexanal, acetaldehyde and 2E-hexenal. The fungistatic and fungicidal effects of the pure volatiles were evaluated and presented below.

[3] = oral, mammalian; cited from earlier work
[4] = test system: Botrytis cinerea; assay: Growth of B. cinerea exposed to volatile vapour in closed jars at 23° C.; settings: 7 days at 23° C.
Description: as §2, §3, §4, §5

[5] = test system: Alternaria alternata; assay: Growth of A. alternata exposed to volatile vapour in closed jars at 23° C.; settings: 7 days at 23° C.; for concentration that completely inhibited / avoided A. alternata growth: headspace concentration
Description: as §2, §3, §4, §5

[6] = test system: Penicillium sp.; assay: Growth of Penicillium sp. in vitro in the presence of pure volatiles; type: cell-based; settings: for Penicillium fungal development delayed: after 7 days at 23° C.
Description: as §1

Compound	concentration that completely inhibited / avoided C. acutatum growth [1] [μg/mL air]	A. niger delay in growth [2]	ORL-MAM LD50 [3] [mg/kg]	prevention of B. cinerea growth ([4]; any amount tested)	concentration that completely inhibited / avoided A. alternata growth [5] [μg/mL air]	Penicillium growth ([6]; 1 μL of volatile, 1 week at 23° C.)	concentration that completely inhibited C. acutatum growth, equivalent ppm of volatile [1] [ppm]	concentration that completely inhibited B. cinerea growth, equivalent ppm of volatile [4] [ppm]	concentration that completely inhibited B. cinerea growth ([4]; headspace concentration) [μg/mL air]	Penicillium fungal development delayed ([6]; insertion of 4 μL of volatile)	Penicillium fungal development delayed ([6]; insertion of 6 μL of volatile) [%]	concentration that completely inhibited A. alternata growth, equivalent ppm of volatile [5] [ppm]
CC=O [acetaldehyde]	0.44	over 66%	250	able to prevent	0.10							
CCC/C=C/C=O [2E-hexenal]						not able to grow						
CCCCCC=O [hexanal]	0.91				1.91		1.5	4	1.05	over 18%	> 74	7
